From US20230202973A1, “BARNESIN A, DERIVATIVES AND USES THEREOF” (Leibniz-Institut Für Naturstoff-Forschung Und …, priority 2018, published 2023)
Where two headings read alike, the source gives them in different places. Square brackets hold non-standard residues; d marks the D form. Peptide text beside a SMILES is read from it. * marks the point of attachment. Sta = CC(C)C[C@H](N)[C@@H](O)CC(=O)O; Isovaleryl = CC(C)CC(=O)*

Assays:
papain [1] = target: T1, papain (Carica papaya, UniProt P00784); experiment: Protease assay with azocasein: papain; type: biochemical; conditions: azocasein substrate, pH 7.2, n.i. = no inhibition; for IC50: read-out: Papain, inhibitory activity as IC50 value
T1 construct: purchased Sigma-Aldrich P4762
T1 sequence (P00784 134-345): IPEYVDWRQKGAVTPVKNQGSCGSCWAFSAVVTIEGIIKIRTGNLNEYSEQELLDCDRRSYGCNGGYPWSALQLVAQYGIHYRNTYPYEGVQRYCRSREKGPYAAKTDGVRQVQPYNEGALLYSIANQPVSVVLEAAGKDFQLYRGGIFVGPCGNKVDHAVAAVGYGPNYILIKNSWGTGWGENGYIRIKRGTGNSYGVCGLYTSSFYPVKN
Description: (§1) Protease Assays with azocasein: Protease inhibition assays against the proteases papain, ficin, trypsin, pepsin and thermolysin were performed according to the protocol of Garcia-Carreño (loc. cit.) in a reaction buffer containing 25 mM TRIS-HCl, 0.15 M NaCl, pH 7.2 (or pH 3.5 for aspartic protease). The total assay volume was 47 μL buffer with 2 μL of the protease as well as 1 μL of suitable inhibitor or corresponding inhibitor solvent (100% MeoH or water). Final concentration of proteases was as follows: 2 mg/mL for papain (Sigma-Aldrich, P4762), 600 μg/mL for ficin (Sigma-Aldrich, F6008), 80 μg/mL for trypsin (Thermo Fisher, 23266), 60 mg/mL for pepsin (Sigma-Aldrich P6887)) and 2 μg/mL for thermolysin (Sigma-Aldrich, P1512).
(§2) Inhibitors were dissolved in 100% MeOH or water and added to the assay (1 μL); final concentration: 2% MeOH. Samples of control inhibitors were prepared as follows: (1) serine protease (trypsin): PMFS (2 mM) and soybean trypsin inhibitor (240 μM) (Sigma-Aldrich, T1021), (2) cysteine proteases (papain and ficin): iodacetamide (2 mM), (3) […] (pepsin): pepstatin A (1 μg/mL) (Sigma-Aldrich, P4265), (4) metalloprotease (thermolysin): EDTA (10 mM). […] Negative controls were performed with protease alone (without inhibitor) and MeOH at a final concentration of 2% (reference for activity of 100%). Extract absorbance controls were performed using inhibitor (1 μL in MeOH) without protease. Blanks were performed using 49 μL buffer and 1 μL MeOH.
(§3) Samples were incubated with buffer and suitable inhibitor (or without for negative controls) for 1 h at r.t. and the reaction was started afterward by adding 50 μl of […] substrate and incubated for 1 h at 37° C. After stopping the reaction with trichloracetic acid (TCA), the separation of the precipitate was accomplished by centrifugation at 6500 g for 5 min. The hydrolyzed substrate supernatant was incubated in an equal volume of 0.5 N NaOH for 5 min and the absorbance was measured at 440 nm. OD values of the protease control without inhibitor were used as reference for a 100% activity.
(§4) The log IC50 values were determined using the standard curves analyzing tool with four parameter logistic equation of SigmaPlot12 with technical triplicates. Propagation of error was calculated using the standard error and log IC50 values where the equation of error propagation is defined as Δy=0.43Δx/x.

ficin = experiment: Protease assay with azocasein: ficin; type: biochemical; conditions: azocasein substrate, pH 7.2, n.i. = no inhibition; for IC50: read-out: Ficin, inhibitory activity as IC50 value
Description: as §1, §2, §3, §4

Cathepsin B [2] = target: T2, Cathepsin B (Homo sapiens, UniProt P07858); experiment: Cathepsin B inhibition assay (Z-Arg-Arg-AMC); type: biochemical; conditions: Z-Arg-Arg-AMC substrate, pH 6.0, n.i. = no inhibition; for IC50: read-out: Cathepsin B, inhibitory activity as IC50 value
Description: Cathepsin B inhibition assay. Cathepsin B inhibition assay was determined according to Hiwasa et al. (loc. cit.) with minor changes. Cathepsin B was purchased from Sigma Aldrich (C0150) and stored in 50 mM sodium acetate, 1 mM EDTA, pH 5 (adjusted with acetic acid). Cathepsin B was activated by preincubation at 40° C. for 10 min in assay buffer (0.1 M sodium acetate 1.3 mM EDTA, pH 6.0 adjusted with acetic acid, 2 μM DTT, 2.6 mM cysteine and 0.05% Triton X100). […] Final concentration of cathepsin B was 0.1 mg/ml. […] After stopping the reaction with 85 μL buffer containing 100 mM sodium monochlor acetate, 30 mM sodium acetate, 70 mM acetic acid, the hydrolyzed substrate was detected at an excitation wavelength of 380 nm and a fluorescence wavelength of 450 nm, using a fluorophotometer. 1 μL of 1.5 mM leupeptin was used as enzyme inhibition control.

trypsin [3] = target: T3, trypsin (Bos taurus, UniProt P00760); experiment: Protease assay with azocasein: trypsin; type: biochemical; conditions: azocasein substrate, pH 7.2; n.i. = no inhibition
T3 construct: purchased Thermo Fisher 23266
T3 sequence (P00760 24-246): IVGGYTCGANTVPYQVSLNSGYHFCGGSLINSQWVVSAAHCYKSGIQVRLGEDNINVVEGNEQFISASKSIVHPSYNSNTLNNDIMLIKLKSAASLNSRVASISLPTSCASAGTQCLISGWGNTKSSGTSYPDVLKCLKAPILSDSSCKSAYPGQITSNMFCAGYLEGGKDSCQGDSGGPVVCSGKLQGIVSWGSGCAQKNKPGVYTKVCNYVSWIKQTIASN
Description: as §1, §2, §3, §4

pepsin = target: T4, pepsin (Sus scrofa, UniProt P00791); experiment: Protease assay with azocasein: pepsin; type: biochemical; conditions: azocasein substrate, pH 3.5; n.i. = no inhibition
T4 construct: purchased Sigma-Aldrich P6887
T4 sequence (P00791 60-385): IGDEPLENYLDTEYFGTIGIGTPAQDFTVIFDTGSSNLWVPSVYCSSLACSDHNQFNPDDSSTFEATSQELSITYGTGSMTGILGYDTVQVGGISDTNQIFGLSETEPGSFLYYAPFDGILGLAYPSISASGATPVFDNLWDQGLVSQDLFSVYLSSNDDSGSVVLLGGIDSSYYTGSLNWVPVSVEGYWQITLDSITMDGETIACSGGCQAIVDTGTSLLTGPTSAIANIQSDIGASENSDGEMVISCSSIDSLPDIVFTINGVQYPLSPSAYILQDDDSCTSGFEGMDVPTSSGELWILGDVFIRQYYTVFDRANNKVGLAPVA
Description: as §1, §2, §3, §4

thermolysin = target: T5, thermolysin (Bacillus thermoproteolyticus, UniProt P00800); experiment: Protease assay with azocasein: thermolysin; type: biochemical; conditions: azocasein substrate, pH 7.2; n.i. = no inhibition
T5 construct: purchased Sigma-Aldrich P1512
T5 sequence (P00800 233-548): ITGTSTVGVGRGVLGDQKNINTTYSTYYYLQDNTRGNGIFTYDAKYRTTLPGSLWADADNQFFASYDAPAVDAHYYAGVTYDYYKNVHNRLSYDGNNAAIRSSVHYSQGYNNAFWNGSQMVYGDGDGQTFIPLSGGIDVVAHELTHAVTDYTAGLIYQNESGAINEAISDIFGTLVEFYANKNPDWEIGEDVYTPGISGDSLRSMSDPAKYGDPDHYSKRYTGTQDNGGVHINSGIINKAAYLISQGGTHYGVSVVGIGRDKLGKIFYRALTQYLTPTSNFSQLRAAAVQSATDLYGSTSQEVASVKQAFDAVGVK
Description: as §1, §2, §3, §4

Cathepsin B [4] = target: T2, Cathepsin B; conditions: reported in literature; cells printed in nM; read-out: Cathepsin B, reported inhibitory activity as IC50 value; cited from earlier work
[5] = target: T6, papain (Sigma-Aldrich, P4762) (Carica papaya, UniProt P00784); experiment: Protease assay with azocasein, papain; type: biochemical; conditions: 2 mM iodacetamide; read-out: inhibition of enzyme activity (control inhibitor), papain
T6 sequence (P00784 134-345): T1 sequence (P00784 134-345)
Description: (§5) Protease Assays with azocasein: Protease inhibition assays against the proteases papain, ficin, trypsin, pepsin and thermolysin were performed according to the protocol of Garcia-Carreño (loc. cit.) in a reaction buffer containing 25 mM TRIS-HCl, 0.15 M NaCl, pH 7.2 (or pH 3.5 for aspartic protease). The total assay volume was 47 μL buffer with 2 μL of the protease as well as 1 μL of suitable inhibitor or corresponding inhibitor solvent (100% MeoH or water). […]
(§6) Inhibitors were dissolved in 100% MeOH or water and added to the assay (1 μL); final concentration: 2% MeOH. […] Extract absorbance controls were performed using inhibitor (1 μL in MeOH) without protease. […]
(§7) Samples were incubated with buffer and suitable inhibitor (or without for negative controls) for 1 h at r.t. and the reaction was started afterward by adding 50 μl of […] substrate and incubated for 1 h at 37° C. […] The hydrolyzed substrate supernatant was incubated in an equal volume of 0.5 N NaOH for 5 min and the absorbance was measured at 440 nm. […]
as §4

[6] = system: ficin (Sigma-Aldrich, F6008); experiment: Protease assay with azocasein, ficin; type: biochemical; conditions: 2 mM iodacetamide
Description: as §5, §6, §7, §4

[7] = system: trypsin (Thermo Fisher, 23266); experiment: Protease assay with azocasein, trypsin; type: biochemical; conditions: 2 mM PMFS
Description: as §5, §6, §7, §4

papain [8] = target: T1, papain; conditions: reported in literature for known compounds; read-out: Papain, reported inhibitory activity as IC50 value; cited from earlier work
trypsin [9] = conditions: reported in literature for known compounds; read-out: Trypsin, reported inhibitory activity as IC50 value; cited from earlier work
[10] = system: pepsin (Sigma-Aldrich P6887); experiment: Protease assay with azocasein, pepsin; type: biochemical; conditions: 1 μg/mL pepstatin A
Description: as §5, §6, §7, §4

## CCCCC/C=C/C(=O)N[C@@H](Cc1ccc(O)cc1)C(=O)N[C@H](/C=C/C(=O)OCC)CCCN=C(N)N [Barnesin A ethyl ester (3), (E)-Oct-2-enoyl-tyrosine-vinylogous arginine ethyl ester]
Papain [1]
  IC50: 2.89 µM
ficin
  IC50: 3.43 µM
Cathepsin B [2]
  IC50: 0.024 µM
Trypsin [3]
  Trypsin, inhibitory activity as IC50 value: n.i.
pepsin
  Pepsin, inhibitory activity as IC50 value: n.i.
thermolysin
  Thermolysin, inhibitory activity as IC50 value: n.i.

## CCCCCCCC(=O)N[C@@H](Cc1ccc(O)cc1)C(=O)N[C@@H](CCCNC(=N)N)CCC(=O)O [(R), 2,3,17,18-Tetrahydrobarnesin A, reference compound]
Papain [1]
  Papain, inhibitory activity as IC50 value: n.i.
ficin
  Ficin, inhibitory activity as IC50 value: n.i.
Cathepsin B [2]
  Cathepsin B, inhibitory activity as IC50 value: n.i.
Trypsin [3]
  Trypsin, inhibitory activity as IC50 value: n.i.
pepsin
  Pepsin, inhibitory activity as IC50 value: n.i.
thermolysin
  Thermolysin, inhibitory activity as IC50 value: n.i.

## CCCCC/C=C/C(=O)N[C@@H](Cc1ccc(O)cc1)C(=O)N[C@H](/C=C/C(=O)O)CCCNC(=N)N [Barnesin A (1), Barnesin A]
Papain [1]
  IC50: 16 µM
ficin
  IC50: 3.43 µM
Cathepsin B [2]
  IC50: 0.0917 µM
Trypsin [3]
  Trypsin, inhibitory activity as IC50 value: n.i.
pepsin
  Pepsin, inhibitory activity as IC50 value: n.i.
thermolysin
  Thermolysin, inhibitory activity as IC50 value: n.i.

## CC(C)[C@H](NC(=O)c1ccc(O)cc1)C(=O)N[C@H](C(=O)N[C@H](C=O)CCCNC(=N)N)C(C)C [Tokaramide A]
Cathepsin B [4]
  IC50: 62.4 nM

## NC(=O)CI [iodacetamide]
[5]
  inhibition at 2000 µM: > 95%
[6]
  inhibition of enzyme activity (control inhibitor), ficin: > 95%

## O=S(=O)(F)Cc1ccccc1 [PMFS]
[7]
  inhibition of enzyme activity (control inhibitor), trypsin: > 95%

## CC(=O)N[C@@H](CC(C)C)C(=O)N[C@@H](CC(C)C)C(=O)N[C@H](C=O)CCCNC(=N)N [Leupeptin, reference compound]
Papain [8]
  IC50: 0.86 µM
Trypsin [9]
  IC50: 2.2 µM

## CC(C)CC(=O)N[C@H](C(=O)N[C@H](C(=O)N[C@@H](CC(C)C)[C@@H](O)CC(=O)N[C@@H](C)C(=O)N[C@@H](CC(C)C)[C@@H](O)CC(=O)O)C(C)C)C(C)C [pepstatin A] (Isovaleryl-VV[Sta]A[Sta]-OH)
[10]
  inhibition of enzyme activity (control inhibitor), pepsin: > 95%
